Test results as given in patent publication US5110976A, “Insecticidal composition comprising more than one active ingredient” (priority 1985, dated 1992).
Converted amounts (≈) assume the structure as drawn.

Key:
Lucillia sericata = assay: Comparative contact test (Table 15); assay type: in vivo, sheep maggot fly (Lucillia sericata), imago; design: key: % mortality after 24 h, Abbott-corrected; conditions: 1440 min
Experimental: (§1) The active ingredient is dissolved in a 1:2 mixture of oil and acetone; filter paper discs (Whatman No. 1, diameter 9 cm) are impregnated with the solutions of the corresponding stereoisomers and enantiomer-pairs, respectively. The acetone is allowed to evaporate, whereupon the insects are exposed to filter papers discs placed in Petri-dishes. Three parallels are used on each dose and 15 insects are placed into each Petri-dish. The percental mortality is determined after 24 hours. The corrected percent mortality is calculated by means of the Abbot Formula.
(§2) The comparative test of Ia, Ib and a 40:60 mixture of Ia:Ib is carried out on bean weevil (Acanthoscelides obtectus), flour-beetle, (Tribolium confusum), house fly (Musca domestica) and sheep maggot fly (Lucillia sericata). The test method described is Example 41.

Musca domestica [1] = assay: Comparative contact test (Table 15); assay type: in vivo, house fly (Musca domestica), imago; conditions: 24 h
Experimental: as §1, §2

Tetranychus urticae = assay: Potter Tower spray on mite-infested leaves (Table 19); assay type: in vivo, mites (Tetranychus urticae); conditions: Tetranychus urticae, 24 h, mortality after 24 hours; read-out: approx. LD50
Experimental: Leaves already infested with mites (Tetranychus urticae) were sprayed under Potter Tower. Mortality after 24 hours on the treated leaves was compared with the control.

T. confusum [2] = assay: Contact test with piperonyl butoxide (Table 17); assay type: in vivo, flour-beetle (T. confusum), imagos
Experimental: as §1
Imagos of flour-beetle (T. confusum) are treated in an analogous manner to Example 41. As synergist piperonyl butoxide is used in a dose of 0.5 mg/disc.

Tribolium confusum [3] = assay: Contact test, mixtures of Ia and Ib of various ratio (Table 13); assay type: in vivo, flour beetle (Tribolium confusum)
Experimental: as §1
In Table 13 the insecticidal effect of mixtures of enantiomer-pairs Ia and Ib of various ratio is shown on flour beetle (Tribolium confusum). The test method is that disclosed in Example 43.

T. confusum [4] = assay: Activity as function of time, toxic symptoms (Table 16); assay type: in vivo, flour beetle (T. confusum), imagos
Experimental: as §1
Activity of cypermethrin stereoisomer-pairs as function of time on flour beetle (T. Confusum).
Flour beetle (T. confusum) imagos are exposed in Petri-dishes according to the method described in Example 43. For each dose 3 parallels are used and 15 animals are applied for each parallel test. In each point of time the insects lying on their backs are counted and the percental results are expressed in Table 16.

Musca domestica [5] = assay: Filter paper disc contact test (Table 11); assay type: in vivo, house fly (Musca domestica)
Experimental: In Table 1 the activity of various stereoisomers of cypermethrin on the house fly (Musca domestica) is shown.
as §1

Colorado potato beetle = assay: Topical test on Colorado potato beetle (Table 14); assay type: in vivo, Colorado potato beetle (Leptinotersa decemlineata), imago
Experimental: In Table 14 the activity on Colorado potato beetle is shown.
The test materials are dissolved in 2-ethoxyethanol (Cellosolve). One 0.3 μl drop of the solution is applied to the abdominal sterna of the imago. The treatment is carried out by using 2 parallels and 10 insects for each dose. […]

tribolium confusum [6] = assay: Comparative contact test (Table 15); assay type: in vivo, flour-beetle (Tribolium confusum), imago; conditions: 24 h
Experimental: as §1, §2

Acanthoscelides obtectus = assay: Comparative contact test (Table 15); assay type: in vivo, bean weevil (Acanthoscelides obtectus), imago; conditions: Acanthoscelides obtectus, 24 h
Experimental: as §1, §2

Hyphantria cunea = assay: Topical test on fall webworm (Table 18); assay type: in vivo, fall wetworm (Hyphantria cunea), L7-L8 larvae; conditions: for 24 hours' mortality: 1440 min
Experimental: The active ingredients are dissolved in 2-ethoxy-ethanol and the solutions are applied in the form of 0.2 μl droplets onto the back of fall wetworm (Hyphantria cunea) of L7 -L8 larvae stage. The treated worms are placed on strawberry leaves in Petri-dishes. The test is carried out by using […], 2 parallels and 10 insects for each dose. The killed worms are counted after 24 hours and the percental mortality rate is calculated.

Tribolium confusum [7] = assay: Contact test on Tribolium confusum (Table 12); assay type: in vivo; conditions: Tribolium confusum, 24 h
Experimental: as §1
It appears from Table 12 that the increased activity shown in Example 41 is due to the synergistic effect of the trans-isomers to Tribolium confusum.

CC1(C)C(C=C(Cl)Cl)C1C(=O)OC(C#N)c1cccc(Oc2ccccc2)c1 (stereo not shown) [Ia:Ib = 4:6]
mortality (Lucillia sericata; 0.02 mg/disc): 18
mortality (Lucillia sericata; 0.07 mg/disc): 50
mortality (Lucillia sericata; 0.22 mg/disc): 60
mortality (Lucillia sericata; 0.67 mg/disc): 75
mortality (Lucillia sericata; 2.0 mg/disc): 100
mortality (Lucillia sericata; 6.0 mg/disc): 100
mortality at 20 µg/disc (Musca domestica [1]; 0.02 mg/disc): 25%
mortality at 70 µg/disc (Musca domestica [1]; 0.07 mg/disc): 45%
mortality at 220 µg/disc (Musca domestica [1]; 0.22 mg/disc): 85%
mortality at 670 µg/disc (Musca domestica [1]; 0.67 mg/disc): 100%
mortality at 2000 µg/disc (Musca domestica [1]; 2.0 mg/disc): 100%
mortality at 6000 µg/disc (Musca domestica [1]; 6.0 mg/disc): 100%
LC50 (Tetranychus urticae): ~0.06 µg/mL (≈ 0.144 µM)
synergizability with piperonyl butoxide (T. confusum [2]; Ia:Ib=4:6 mixture versus Ia): can be synergized to a larger extent than enantiomer Ia
mortality at 25 µg/disc (T. confusum [2]; Tribolium confusum, 24 h, 0.025 mg/disc, PBO, where added, 0.5 mg/disc): 0%
mortality at 50 µg/disc (T. confusum [2]; Tribolium confusum, 24 h, 0.05 mg/disc, PBO, where added, 0.5 mg/disc): 18%
mortality at 100 µg/disc (T. confusum [2]; Tribolium confusum, 24 h, 0.1 mg/disc, PBO, where added, 0.5 mg/disc): 57%
mortality at 200 µg/disc (T. confusum [2]; Tribolium confusum, 24 h, 0.2 mg/disc, PBO, where added, 0.5 mg/disc): 90%
mortality at 400 µg/disc (T. confusum [2]; Tribolium confusum, 24 h, 0.4 mg/disc, PBO, where added, 0.5 mg/disc): 100%
24 hours' mortality % (Tribolium confusum [3]; 0.02 mg/disc, 1440 min): 14%
24 hours' mortality % (Tribolium confusum [3]; 0.06 mg/disc, 1440 min): 53%
24 hours' mortality % (Tribolium confusum [3]; 0.25 mg/disc): 100%
24 hours' mortality % (Tribolium confusum [3]; 1.00 mg/disc): 100%
% of insects showing toxic symptoms (T. confusum [4]; 30 minutes): 0%
% of insects showing toxic symptoms (T. confusum [4]; 30 minutes, 0.33 mg/disc): 0%
% of insects showing toxic symptoms (T. confusum [4]; 30 minutes, 1.00 mg/disc): 50%
% of insects showing toxic symptoms (T. confusum [4]; 30 minutes, 3.00 mg/disc): 55%
% of insects showing toxic symptoms (T. confusum [4]; 60 minutes): 15%
% of insects showing toxic symptoms (T. confusum [4]; 60 minutes, 0.33 mg/disc): 85%
% of insects showing toxic symptoms (T. confusum [4]; 60 minutes, 1.00 mg/disc): 85%
% of insects showing toxic symptoms (T. confusum [4]; 60 minutes, 3.00 mg/disc): 100%
% of insects showing toxic symptoms (T. confusum [4]; 120 minutes): 30%
% of insects showing toxic symptoms (T. confusum [4]; 120 minutes, 0.33 mg/disc): 100%
% of insects showing toxic symptoms (T. confusum [4]; 120 minutes, 1.00 mg/disc): 100%
% of insects showing toxic symptoms (T. confusum [4]; 120 minutes, 3.00 mg/disc): 100%
% of insects showing toxic symptoms (T. confusum [4]; 180 minutes): 55%
% of insects showing toxic symptoms (T. confusum [4]; 180 minutes, 0.33 mg/disc): 100%
% of insects showing toxic symptoms (T. confusum [4]; 180 minutes, 1.00 mg/disc): 100%
% of insects showing toxic symptoms (T. confusum [4]; 180 minutes, 3.00 mg/disc): 100%
mortality at 40 µg/disc (Musca domestica [5]; Musca domestica, 24 h, 0.04 mg/disc): 41%
mortality at 110 µg/disc (Musca domestica [5]; Musca domestica, 24 h, 0.11 mg/disc): 81%
mortality at 330 µg/disc (Musca domestica [5]; Musca domestica, 24 h, 0.33 mg/disc): 100%
mortality at 1000 µg/disc (Musca domestica [5]; Musca domestica, 24 h, 1.00 mg/disc): 100%
mortality at 3000 µg/disc (Musca domestica [5]; Musca domestica, 24 h, 3.00 mg/disc): 100%
comparative activity (Musca domestica [5]; mixture versus Ia): corresponds to that of the pure isomer Ia
24 hours' mortality % (Colorado potato beetle; 0.05 μg/beetle): 45%
24 hours' mortality % (Colorado potato beetle; 0.10 μg/beetle): 60%
24 hours' mortality % (Colorado potato beetle; 0.20 μg/beetle): 70%
mortality at 0.4 µg/beetle (Colorado potato beetle; Leptinotarsa decemlineata, topical, read-out: 24 hours' mortality %, 0.40 μg/beetle): 80%
mortality at 20 µg/disc (tribolium confusum [6]; 0.02 mg/disc): 16%
mortality at 70 µg/disc (tribolium confusum [6]; 0.07 mg/disc): 80%
mortality at 220 µg/disc (tribolium confusum [6]; 0.22 mg/disc): 100%
mortality at 670 µg/disc (tribolium confusum [6]; 0.67 mg/disc): 100%
mortality at 2000 µg/disc (tribolium confusum [6]; 2.0 mg/disc): 100%
mortality at 6000 µg/disc (tribolium confusum [6]; 6.0 mg/disc): 100%
mortality at 20 µg/disc (Acanthoscelides obtectus; 0.02 mg/disc): 30%
mortality at 70 µg/disc (Acanthoscelides obtectus; 0.07 mg/disc): 55%
mortality at 220 µg/disc (Acanthoscelides obtectus; 0.22 mg/disc): 90%
mortality at 670 µg/disc (Acanthoscelides obtectus; 0.67 mg/disc): 100%
mortality at 2000 µg/disc (Acanthoscelides obtectus; 2.0 mg/disc): 100%
mortality at 6000 µg/disc (Acanthoscelides obtectus; 6.0 mg/disc): 100%
24 hours' mortality (Hyphantria cunea; 0.023 (μg/disc)): 40%
24 hours' mortality (Hyphantria cunea; 0.047 (μg/disc)): 50%
24 hours' mortality (Hyphantria cunea; 0.094 (μg/disc)): 55%
mortality at 0.188 µg/disc (Hyphantria cunea; Hyphantria cunea, topical, 24 h, 0.188 (μg/disc)): 65%
mortality at 0.375 µg/disc (Hyphantria cunea; Hyphantria cunea, topical, 24 h, 0.375 (μg/disc)): 75%
mortality at 110 µg/disc (Tribolium confusum [7]; 0.11 mg/disc): 61%
mortality at 330 µg/disc (Tribolium confusum [7]; 0.33 mg/disc): 89%
mortality at 1000 µg/disc (Tribolium confusum [7]; 1.00 mg/disc): 100%
mortality at 3000 µg/disc (Tribolium confusum [7]; 3.00 mg/disc): 100%
